Laboratory results taken from US5336483A (priority 1993, dated 1994).
“Also recorded” adds a separate entry of the source. Where two headings read alike, the source gives them in different places.

Assays:
[1] = tested on: morphine-induced analgesia; assay: In vivo antagonist activity: reversal of morphine-induced analgesia, rat paw withdrawal latency test; details: for paw withdrawal latency after i.v. injection / reversal of behavioral arrest and other opioid effects / duration of reversal: 5 mg/kg i.v.; for paw withdrawal latency after i.v. injection: tested within 5-10 min; for paw withdrawal latency after i.v. injection / duration of reversal: morphine-treated rats; for reversal of behavioral arrest and other opioid effects: morphine sulphate 10 mg/kg s.c.; for prodrug behaviour: acetate esters vs 1 and 2; for blood brain barrier penetration: i.v., inferred from reversal of morphine effects in rats; for antagonist potency in vivo (comparison in words): morphine induced paw withdrawal latency; for reversal of the effects of morphine: rat paw withdrawal latency test
Method: Assessment of the ability of compounds 1, 2 and 10, 12 to cross the blood brain barrier was tested in male Sprague-Dawley rats (300 g) acutely treated with morphine. […] A baseline paw withdrawal to a radiant thermal stimulus was obtained in unrestrained animals as described in Iadarola et al., Brain Res. 1988, 455, 205-212 and Hargreaves, Pain 1988, 32, 77-78. The stimulus was set to give a baseline withdrawal latency of approximately 10 sec. and the cutoff was at 18 sec. After baseline testing, morphine sulphate, 10 mg/kg, was injected subcutaneously in a volume of 0.1 ml of saline/100 g of body weight.
Ioxy (1) and epiloxy (2) were evaluated in rat and guinea pig brain membranes for their opiate receptor selectivity and potency. […] This comparison was not made during development of the ^18 F cyclofoxy compounds.

μ and κ2 receptor = assay: Displacement of [^3 H]CycloFOXY, μ and κ2 receptor binding, rat brain lysed-P2 membranes
[2] = target: T1, High Affinity δ Receptors (Rattus norvegicus, UniProt P33533); assay: Displacement of [^3 H]DADLE, high affinity δ receptors, rat lysed-P2 membranes; type: binding
T1 construct: and rat lysed-P2 membranes as previously described; from tissue; host or cells: rat lysed-P2 membranes (brain)

Low Affinity δ Receptors = assay: Displacement of [^3 H]DADLE, low affinity δ receptors, rat lysed-P2 membranes; type: binding
κ2 receptor = assay: Displacement of [^3 H]BRM (bremazocine), κ2 receptor binding, guinea pig brain membranes depleted of μ and δ sites; details: for less potent (fold) than ioxy: [^3 H]BRM displacement
κ1 receptor = target: T2, κ1 receptor (Cavia porcellus, UniProt P41144); assay: biochemical; type: binding, guinea pig
T2 construct: from tissue; host or cells: guinea pig brain membranes, pretreated with BIT and FIT

μ receptor = target: T3, μ receptor (Rattus norvegicus, UniProt P33535); assay: Displacement of [^3 H]DAGO, μ receptor binding, rat lysed-P2 membranes
T3 construct: and rat lysed-P2 membranes as previously described; from tissue; host or cells: rat brain, lysed-P2 membranes

[3] = tested on: opiate rich areas of rat brain; assay: In vivo labelling of rat brain determined by autoradiography; details: i.v. in rats, preliminary
Method: The radiolabelled products were stored at -20° C. and used within 1 week of purification. The material was dried down under a gentle stream of nitrogen and redissolved in normal saline prior to intravenous (IV) injection into rats (300 g, male Sprague-Dawley) in a volume of 100 μl/100 g body weight.
Cleavage of the 3-O-acetyl group of [^125 I]3-O-Acetylioxy ([^125 I]10) was performed starting with 315 μCi of [^125 I]3-O-Acetylioxydissolved in 50 μl of acetonitrile. To this solution at 25° C. was added 50 μl of concentrated aqueous ammonia solution and the reaction mixture was allowed to stand at 25° C. for 20 min. The reaction solvent was removed by careful evaporation under a stream of nitrogen. The residue was dissolved in 50 μl of 0.1% aqueous TFA/acetonitrile and purified by HPLC as described above for [^125 I]3-O-Acetylioxy to give [^125 I]1 (279 μCi, 88.5% yield). […] The [^125 I]ioxy eluted with the exact elution profile of unlabelled ioxy(1). The product was stored at -20° C. and used within 1 week of purification. The material was dried down under a gentle stream of nitrogen and redissolved in normal saline prior to intravenous (IV) injection into rats (300 g, male Sprague-Dawley) in a volume of 100 μl/100 g body weight.

T2 sequence (P41144 whole entry): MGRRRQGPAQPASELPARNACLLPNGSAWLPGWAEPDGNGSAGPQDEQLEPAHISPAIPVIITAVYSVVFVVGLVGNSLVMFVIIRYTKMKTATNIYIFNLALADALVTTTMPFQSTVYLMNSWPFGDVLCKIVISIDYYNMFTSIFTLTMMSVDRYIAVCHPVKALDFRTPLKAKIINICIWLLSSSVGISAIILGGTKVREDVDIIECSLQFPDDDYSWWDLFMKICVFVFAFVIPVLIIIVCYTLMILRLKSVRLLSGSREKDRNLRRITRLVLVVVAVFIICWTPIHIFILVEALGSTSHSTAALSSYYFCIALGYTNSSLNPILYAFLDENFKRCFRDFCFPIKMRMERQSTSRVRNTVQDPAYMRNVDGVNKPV
T1 sequence (P33533 whole entry): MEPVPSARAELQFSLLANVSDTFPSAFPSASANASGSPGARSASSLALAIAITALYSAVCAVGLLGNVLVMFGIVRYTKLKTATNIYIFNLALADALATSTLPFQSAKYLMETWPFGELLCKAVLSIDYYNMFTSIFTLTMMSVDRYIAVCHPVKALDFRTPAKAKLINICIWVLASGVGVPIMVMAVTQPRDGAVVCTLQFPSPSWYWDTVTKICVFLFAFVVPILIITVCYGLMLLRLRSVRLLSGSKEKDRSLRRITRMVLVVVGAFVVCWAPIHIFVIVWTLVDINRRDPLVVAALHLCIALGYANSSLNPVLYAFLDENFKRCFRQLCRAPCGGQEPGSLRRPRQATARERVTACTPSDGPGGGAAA
T3 sequence (P33535 whole entry): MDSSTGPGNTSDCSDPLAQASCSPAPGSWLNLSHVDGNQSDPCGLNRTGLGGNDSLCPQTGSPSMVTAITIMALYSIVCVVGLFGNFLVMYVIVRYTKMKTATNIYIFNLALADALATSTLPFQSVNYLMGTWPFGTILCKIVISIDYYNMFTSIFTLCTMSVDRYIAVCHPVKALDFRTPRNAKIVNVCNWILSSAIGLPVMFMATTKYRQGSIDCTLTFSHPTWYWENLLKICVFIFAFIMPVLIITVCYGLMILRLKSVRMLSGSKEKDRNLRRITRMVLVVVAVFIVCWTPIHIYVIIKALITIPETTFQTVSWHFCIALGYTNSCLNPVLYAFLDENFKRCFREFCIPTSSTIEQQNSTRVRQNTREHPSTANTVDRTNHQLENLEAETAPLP

Compound: CC(=O)Oc1ccc2c3c1O[C@H]1[C@H](I)CC[C@@]4(O)[C@@H](C2)N(CC2CC2)CC[C@]314 [Compound 10, 3-Acetoxy-6β-Iodo-14-Hydroxy-17-Cyclopropylmethyl-4,5α-Epoxymorphinan]
- paw withdrawal latency after i.v. injection [1]: returned to near baseline values
- reversal of behavioral arrest and other opioid effects [1]: reversed in a matter of seconds
- duration of reversal [1]: at least 40 min
- prodrug behaviour [1]: served as prodrug forms of 1 and 2
- blood brain barrier penetration [1]: getting into the brain; also recorded: penetrated the blood brain barrier more effectively
- antagonist potency in vivo (comparison in words) [1]: more potent effects on morphine induced paw withdrawal latency than their corresponding phenolic counterparts
- reversal of the effects of morphine [1]: complete reversal of the effects of morphine

Compound: CC(=O)Oc1ccc2c3c1O[C@H]1[C@@H](I)CC[C@@]4(O)[C@@H](C2)N(CC2CC2)CC[C@]314 [Compound 12, 3-Acetoxy-6α-Iodo-14-Hydroxy-17-Cyclopropylmethyl-4,5α-Epoxymorphinan]
- paw withdrawal latency after i.v. injection [1]: returned to near baseline values
- reversal of behavioral arrest and other opioid effects [1]: reversed in a matter of seconds
- duration of reversal [1]: at least 40 min
- prodrug behaviour [1]: served as prodrug forms of 1 and 2
- blood brain barrier penetration [1]: getting into the brain; also recorded: penetrated the blood brain barrier more effectively
- antagonist potency in vivo (comparison in words) [1]: more potent effects on morphine induced paw withdrawal latency than their corresponding phenolic counterparts
- reversal of the effects of morphine [1]: complete reversal of the effects of morphine

Compound: Oc1ccc2c3c1O[C@H]1[C@H](Br)CC[C@@]4(O)[C@@H](C2)N(CC2CC2)CC[C@]314 [CycloBROXY, reference compound]
- IC50 (μ and κ2 receptor): 3.14 ± 0.11 nM
- Ki (μ and κ2 receptor): 1.19 nM
- relative affinity / potency in words (μ and κ2 receptor; [^3 H]CycloFOXY displacement): intermediate receptor affinity
- Ki [2]: 1.96 nM
- N (slope factor) ([2]; [^3 H]DADLE, high affinity δ): 0.99 ± .09
- higher affinity (fold) ([2]; [^3 H]DADLE, high affinity δ): 6 fold
- IC50 ([2]; read-out: IC50): 4.3 nM
- IC50 (Low Affinity δ Receptors): 5.77 ± 0.14 nM
- Ki (Low Affinity δ Receptors): 4.92 nM
- IC50 (κ2 receptor): 20.2 ± 1.2 nM
- Ki (κ2 receptor): 7.21 nM
- less potent (fold) than ioxy (κ2 receptor): 3 fold
- IC50 (κ1 receptor): 0.7 ± 0.02 nM
- Ki (κ1 receptor): 0.32 nM
- N (slope factor) (κ1 receptor; [^3 H]U69,593 displacement): 1.03 ± .03
- relative potency in words (κ1 receptor; [^3 H]U69,593 displacement): most potent displacers
- IC50 (μ receptor): 4.21 ± 0.14 nM
- Ki (μ receptor): 1.23 nM
- N (slope factor) (μ receptor; [^3 H]DAGO displacement): 1.05 ± .04
- lower affinity / less potent (fold) than ioxy (μ receptor; [^3 H]DAGO displacement): about 1.5 fold

Compound: Oc1ccc2c3c1O[C@H]1[C@H](F)CC[C@@]4(O)[C@@H](C2)N(CC2CC2)CC[C@]314 [CycloFOXY, 6β-fluoro-3,14-dihydroxy-17-cyclopropyl methyl-4,5α-epoxymorphinan, reference compound]
- kappa selectivity κ1/μ (κ1 receptor; ratio κ1/μ): 0.89

Compound: Oc1ccc2c3c1O[C@H]1[C@@H](I)CC[C@@]4(O)[C@@H](C2)N(CC2CC2)CC[C@]314 [EpilOXY, 6α-Iodo-3,14-Dihydroxy-17-Cyclopropylmethyl-4,5α-Epoxymorphinan]
- IC50 (μ and κ2 receptor): 4.34 ± 0.19 nM
- Ki (μ and κ2 receptor): 1.65 nM
- reduction in affinity (fold) compared with ioxy (1) (μ and κ2 receptor; [^3 H]CycloFOXY displacement): 6 fold
- Ki [2]: 46.2 nM
- N (slope factor) ([2]; [^3 H]DADLE, high affinity δ): 0.99 ± .07
- lowered affinity / less potent (fold) than ioxy (1) ([2]; [^3 H]DADLE, high affinity δ): 4 fold
- IC50 ([2]; read-out: IC50): 101 ± 8.4 nM
- IC50 (Low Affinity δ Receptors): 8.06 ± 0.58 nM
- Ki (Low Affinity δ Receptors): 6.88 nM
- lower affinity (fold) than ioxy (1) (Low Affinity δ Receptors; [^3 H]DADLE, low affinity δ): 3 fold
- IC50 (κ2 receptor): 23.7 ± 1.1 nM
- Ki (κ2 receptor): 8.46 nM
- less potent (fold) than ioxy (κ2 receptor): 3 fold
- IC50 (κ1 receptor): 3.17 ± 0.06 nM
- Ki (κ1 receptor): 1.49 nM
- N (slope factor) (κ1 receptor): 1.10 ± .02
- less potent (fold) than ioxy (κ1 receptor): 4 fold
- IC50 (μ receptor): 7.16 ± 0.72 nM
- Ki (μ receptor): 2.09 nM
- N (slope factor) (μ receptor; [^3 H]DAGO displacement): 0.95 ± .08
- lower affinity / less potent (fold) than ioxy (μ receptor; [^3 H]DAGO displacement): 2 fold
- paw withdrawal latency after i.v. injection [1]: returned to near baseline values
- reversal of behavioral arrest and other opioid effects [1]: reversed in a matter of seconds
- duration of reversal [1]: at least 40 min
- blood brain barrier penetration [1]: getting into the brain
- reversal of the effects of morphine [1]: complete reversal of the effects of morphine

Compound: Oc1ccc2c3c1O[C@H]1[C@H](I)CC[C@@]4(O)[C@@H](C2)N(CC2CC2)CC[C@]314 [IOXY, 6β-Iodo-3,14-Dihydroxy-17-Cyclopropylmethyl-4,5α-Epoxymorphinan]
- IC50 (μ and κ2 receptor): 0.77 ± 0.05 nM
- Ki (μ and κ2 receptor): 0.29 nM
- relative affinity / potency in words (μ and κ2 receptor; [^3 H]CycloFOXY displacement): more potent than the opiate antagonist, naltrexone
- IC50 [2]: 5.6 ± 3.1 nM
- Ki [2]: 11.7 nM
- N (slope factor) ([2]; [^3 H]DADLE, high affinity δ): 0.77 ± .07
- Ki (Low Affinity δ Receptors): 2.25 nM
- relative affinity in words (Low Affinity δ Receptors; [^3 H]DADLE, low affinity δ): highest affinity of all the compounds tested
- IC50 (Low Affinity δ Receptors; […], ligand concentration = 2.1 nM): 2.64 ± 0.21 nM
- IC50 (κ2 receptor): 7.65 ± 0.23 nM
- Ki (κ2 receptor): 2.73 nM
- kappa selectivity κ2/μ (κ2 receptor; ratio κ2/μ): 0.3
- IC50 (κ1 receptor): 0.89 ± 0.01 nM
- Ki (κ1 receptor): 0.42 nM
- N (slope factor) (κ1 receptor): 1.04 ± .02
- kappa selectivity κ1/μ (κ1 receptor): 1.9
- relative potency in words (κ1 receptor): most potent displacers
- IC50 (μ receptor): 2.74 ± 0.21 nM
- Ki (μ receptor): 0.8 nM
- N (slope factor) (μ receptor; [^3 H]DAGO displacement): 1.05 ± .07
- relative potency in words (μ receptor; [^3 H]DAGO displacement): most potent
- paw withdrawal latency after i.v. injection [1]: returned to near baseline values
- reversal of behavioral arrest and other opioid effects [1]: reversed in a matter of seconds
- duration of reversal [1]: at least 40 min
- blood brain barrier penetration [1]: readily passed the blood brain barrier
- blood brain barrier penetration ([1]; listed as 1): getting into the brain
- antagonist potency in vivo (comparison in words) ([1]; listed as Ioxy): more potent in vivo than compound 2 and cyclofoxy
- antagonist potency in vivo (comparison in words) ([1]; listed as ioxy): potent opioid receptor antagonist in the rat; also recorded: more effective than epiioxy
- reversal of the effects of morphine [1]: complete reversal of the effects of morphine

Compound: O=C1CC[C@@]2(O)[C@H]3Cc4ccc(O)c5c4[C@@]2(CCN3CC2CC2)[C@H]1O5 [Naltrexone, reference compound]
- paw withdrawal latency after i.v. injection [1]: returned to near baseline values
- reversal of behavioral arrest and other opioid effects [1]: reversed in a matter of seconds
- reversal of the effects of morphine [1]: complete reversal of the effects of morphine

Compound: Oc1ccc2c3c1O[C@H]1[C@H](F)CC[C@@]4(O)[C@@H](C2)N(CC2CC2)CC[C@]314 [[^3 H]CycloFOXY, reference compound]
- Kd (μ and κ2 receptor; [^3 H]CycloFOXY, read-out: Kd of radioligand): 0.8 nM

Compound: Oc1ccc2c3c1O[C@H]1[C@H]([125I])CC[C@@]4(O)[C@@H](C2)N(CC2CC2)CC[C@]314 [[^125 I]1]
- in vivo labelling of rat brain [3]: could label opiate rich areas of rat brain

Compound: CC(=O)Oc1ccc2c3c1O[C@H]1[C@H]([125I])CC[C@@]4(O)[C@@H](C2)N(CC2CC2)CC[C@]314 [[^125 I]10, [^125 I]3-Acetoxy-6β-Iodo-14-Hydroxy-17-Cyclopropylmethyl-4,5α-Epoxymorphinan]
- in vivo labelling of rat brain [3]: could label opiate rich areas of rat brain

Compound: [D-ala^2, D-leu^5 ]enkephalin [[^3 H] DADLE, reference compound]
- Kd (Low Affinity δ Receptors; [^3 H]DADLE, low affinity δ, δcx site, read-out: Kd of radioligand): 12.2 nM
